{"source": "patent US9526766B2", "about": "“Potentiation of antibiotic treatment with a protein-lipid complex” (priority 2012, dated 2016)", "key": {"Staphylococcus aureus": {"test_system": "Staphylococcus aureus", "test": "Minimal bactericidal concentration (MBC) from MIC plates", "assay_type": "cell-based", "details": "antibiotic alone", "text": "The MBC was defined as the lowest concentration of antimicrobials yielding colony counts <0.1% (3 log10 reduction) of the initial inoculum (as determined by colony counts from the growth control well immediately after inoculation) as described."}, "MRSA strain NRS 384": {"test_system": "MRSA strain NRS 384", "test": "Methicillin resistance development under stepwise methicillin exposure", "assay_type": "cell-based", "details": "Staphylococcus aureus, read-out: Methicillin MIC after adaptation, NRS 384", "text": "ALAFAC and Methicillin Resistance Development. Experiments were designed to test the impact of ALAFAC on the adaptation of MRSA to methicillin in liquid cultures, and to test ALAFAC's potential to inhibit resistance increase during antibiotic pressure. […]"}, "Acinetobacter baumanni": {"test_system": "Acinetobacter baumanni", "test": "MIC by broth microdilution, antibiotics with and without ALAFAC", "assay_type": "cell-based", "details": "agent alone", "procedure": "Methodology: Minimal inhibitory concentrations (MICs) were determined in 96-well microtiter plates using the microdilution method according to approved standards of the CLSI except that Todd-Hewitt medium supplemented with 0.5% yeast extract, which yields reproducible MIC results was used as the test medium for S. pneumoniae. For the remaining species Mueller-Hinton medium was used as indicated by the CLSI standard. Each well contained two-fold dilutions of antibiotic, was seeded with a final bacterial concentration of 10^5 CFU/mL, and was incubated for 18 h at 37° C. in a Synergy II microplate reader (Biotek, Winooski, Vt.) where the OD600 was recorded every 5 minutes to monitor bacterial growth. The MIC was defined as the lowest concentration of antimicrobial agent solution at which no increase in OD600 was detected.\nIn vitro susceptibility tests. Minimal inhibitory concentrations (MICs) were determined in 96-well microtiter plates using the microdilution method according to approved standards of the CLSI except that Todd-Hewitt medium supplemented with 0.5% yeast extract, which yields reproducible MIC results was used as the test medium for S. pneumoniae. MICs for A. baumanni, and M. catarrhalis were determined in MH media. Two-fold dilutions of a starting antibiotic concentration was added in triplicate into microtiter plate wells (in 96-well plates), were seeded with a final bacterial concentration of ˜10^5 colony forming units (CFU)/mL, and was incubated for 18 h in ambient air at 37° C. in a Synergy II microplate reader (Biotek, Winooski, Vt.) where the OD600 was recorded every 5 minutes to monitor bacterial growth. The MIC was defined as the lowest concentration of antimicrobial agent solution at which no increase in OD600 was detected."}, "S. pneumoniae D39": {"test_system": "S. pneumoniae D39", "test": "Autolysis by optical density at 600 nm", "assay_type": "cell-based, Streptococcus pneumoniae", "text": "Most agents that kill pneumococci, including […] and cell wall-active anti-bacterials activate the major autolysin LytA to induce lysis of the bacteria, which can easily be detected by eye as a clearing of the bacterial suspension upon treatment and measured by a decrease in OD600 nm over time. In comparison, antibiotics acting on bacterial DNA, RNA, or protein synthesis show reduced, though still significant, levels of cell lysis. However, during our combination treatments with […] and gentamicin above we observed no detectable lysis. […] The lack of lysis from combination treatment may be beneficial for the host in reducing the host inflammation associated with bacterial components after lysis."}, "Escherichia coli [1]": {"test_system": "Escherichia coli", "test": "Bactericidal activity of ALAFAC alone", "assay_type": "cell-based"}, "[2]": {"details": "in vivo; cited from earlier work"}, "Staphylococci [3]": {"test_system": "Staphylococci", "test": "Bactericidal activity of ALAFAC alone", "assay_type": "cell-based"}, "Bacillus subtilis": {"test_system": "Bacillus subtilis", "details": "concentrations up to 5 mg/ml; cited from earlier work"}, "Pseudomonas aeruginosa": {"test_system": "Pseudomonas aeruginosa", "details": "concentrations up to 5 mg/ml; cited from earlier work"}, "Staphylococci [4]": {"test_system": "Staphylococci", "details": "concentrations up to 5 mg/ml; cited from earlier work"}, "NRS 384 Staphylococci": {"test_system": "NRS 384 Staphylococci", "test": "Intracellular pH measurement (BCECF-AM)", "assay_type": "cell-based, Staphylococcus aureus", "details": "ALAFAC 100 μg/mL (6 μM), RuR 30 μM, Amiloride 1 mM", "text": "Intracellular pH measurement. A reported protocol for intracellular pH (pHi) measurement was modified and optimized for S. aureus by testing the effect of various dye concentrations and staining times on the measured fluorescence of S. aureus isolate NRS 384 grown to mid-log phase. Cell samples were subjected to increasing concentrations of the membrane-permeant acetoxymehtyl (AM) ester derivative of the dual-excitation ratiometric pH indicator dye BCECF (2′,7′-bis-(2-carboxyethyl)-5-(and-6)-carboxyfluorescein), for 30 minutes at 30° C. Fluorescence was measured as a ratio of fluorescence at 530 nm with dual wavelength excitation at 490 and 440 nm and calibration curves were established for each independent experiment. After testing a number of loading concentrations we observed that the fluorescence ratios remains generally constant when concentrations above 20 μM was used. Therefore 25 μM BCECF-AM was used for all experiments. The optimized staining time, 30 minutes, was determined using the same criteria and was used for all experiments. After loading, the cells were washed twice in PBS by centrifugation and the resulting pellet was resuspended in PBS to the original volume and ALAFAC and ALAFAC/antibiotic combinations were added. CCCP was added as a positive control. CCCP is a lipophilic weak acid that is soluble in the lipid domain of the membrane in both the protonated and deprotonated form. This allows it to act as a protonophore causing an influx of H^+ into the cytoplasm, dissipating both the electrical potential and the H^+ gradient across the inner membrane. For each experiment calibration was performed where cells were resuspended in high [K^+] buffers at different pH values ranging from 6.5 to 8.0."}, "Escherichia coli [5]": {"test_system": "Escherichia coli", "details": "concentrations up to 5 mg/ml; cited from earlier work"}, "[6]": {"details": "sublethal ALAFAC (50 μg/ml), low gentamicin, alone or combined"}}, "note": "Read-outs that look alike come from different tables or passages of the source.", "data": [{"molecule": "COc1cccc(OC)c1C(=O)N[C@@H]1C(=O)N2[C@@H]1SC(C)(C)[C@@H]2C(=O)O", "note": "[Methicillin, methicillin]", "values": [{"measurement": "MBC", "setting": "Staphylococcus aureus; Staphylococcus aureus, NRS1, S. aureus NRS1, read-out: MBC", "result": "> 256", "unit": "µg/mL"}, {"measurement": "MBC", "setting": "Staphylococcus aureus; Staphylococcus aureus, NRS70, S. aureus NRS70, read-out: MBC", "result": 128, "unit": "µg/mL"}, {"measurement": "MBC", "setting": "Staphylococcus aureus; Staphylococcus aureus, NRS71, S. aureus NRS71, read-out: MBC", "result": "> 256", "unit": "µg/mL"}, {"measurement": "MBC", "setting": "Staphylococcus aureus; Staphylococcus aureus, NRS100, S. aureus NRS100, read-out: MBC", "result": "> 256", "unit": "µg/mL"}, {"measurement": "MBC", "setting": "Staphylococcus aureus; Staphylococcus aureus, NRS123, S. aureus NRS123, read-out: MBC", "result": "> 256", "unit": "µg/mL"}, {"measurement": "MBC", "setting": "Staphylococcus aureus; Staphylococcus aureus, NRS384, S. aureus NRS384, read-out: MBC", "result": "> 256", "unit": "µg/mL"}, {"measurement": "MBC", "setting": "Staphylococcus aureus; Staphylococcus aureus, S. aureus 11090306, read-out: MBC", "result": 64, "unit": "µg/mL"}, {"measurement": "MBC", "setting": "Staphylococcus aureus; Staphylococcus aureus, S. aureus 10307570, read-out: MBC", "result": "> 256", "unit": "µg/mL"}, {"measurement": "MIC", "setting": "MRSA strain NRS 384; 8 cycles with increasing methicillin, no ALAFAC", "result": 512, "unit": "µg/mL"}, {"measurement": "MIC", "setting": "MRSA strain NRS 384; 10 cycles in methicillin plus ALAFAC 100 μg/mL (6 μM), MIC tested without ALAFAC", "result": 64, "unit": "µg/mL"}]}, {"molecule": "CC1(C)S[C@@H]2[C@H](NC(=O)Cc3ccccc3)C(=O)N2[C@H]1C(=O)O", "note": "[Penicillin, penicillin G]", "values": [{"measurement": "MIC", "setting": "Acinetobacter baumanni; A. baumanni AB307", "result": ">100", "unit": "µg/mL"}, {"measurement": "MIC", "setting": "Acinetobacter baumanni; A. baumanni AB979", "result": ">100", "unit": "µg/mL"}, {"measurement": "MIC", "setting": "Acinetobacter baumanni; A. baumanni AB979, listed as penicillin", "result": "exceeded 100 μg/ml"}, {"measurement": "MIC", "setting": "Acinetobacter baumanni; Acinetobacter, A. baumanni AB307, read-out: MIC", "result": "> 100", "unit": "µg/mL"}]}, {"molecule": "gentamicin", "values": [{"measurement": "Autolysis (OD600)", "setting": "S. pneumoniae D39; [6]", "result": "failed to lyse"}, {"measurement": "MBC", "setting": "Staphylococcus aureus; S. aureus NRS1", "result": ">256", "unit": "µg/mL"}, {"measurement": "MBC", "setting": "Staphylococcus aureus; S. aureus NRS384", "result": 16, "unit": "µg/mL"}, {"measurement": "MIC", "setting": "Acinetobacter baumanni; A. baumanni AB307", "result": 36, "unit": "µg/mL"}, {"measurement": "MIC", "setting": "Acinetobacter baumanni; A. baumanni AB979", "result": 2.5, "unit": "µg/mL"}]}, {"molecule": "ALAFAC: non-covalent complex of alpha-lactalbumin and fatty acid (oleic acid); labeled HAMLET or HL in drawings and tables (protein, UniProt P00709 20-142, looked up, complexed with oleic acid) Alpha-lactalbumin: KQFTKCELSQLLKDIDGYGGIALPELICTMFHTSGYDTQAIVENNESTEYGLFQISNKLWCKSSQVPQSRNICDISCDKFLDDDITDDIMCAKKILDIKGIDYWLAHKALCTEKLEQWLCEKL", "values": [{"measurement": "Autolysis (OD600)", "setting": "S. pneumoniae D39; ALAFAC alone at a lethal concentration (250 μg/ml)", "result": "rapid lysis"}, {"measurement": "Autolysis (OD600)", "setting": "S. pneumoniae D39; [6]", "result": "small decrease in optical density"}, {"measurement": "Concentration of ALAFAC not triggering death", "setting": "Escherichia coli [1]", "result": "exceeding 1,000 μg/ml"}, {"measurement": "Toxic side effects", "setting": "[2]", "result": "without showing any toxic side effects"}, {"measurement": "Concentration of ALAFAC not triggering death", "setting": "Staphylococci [3]", "result": "exceeding 1,000 μg/ml"}, {"measurement": "Bactericidal activity", "setting": "Bacillus subtilis", "result": "no detectable activity"}, {"measurement": "Bactericidal activity", "setting": "Pseudomonas aeruginosa", "result": "no detectable activity"}, {"measurement": "Bactericidal activity", "setting": "Staphylococci [4]", "result": "no detectable activity"}, {"measurement": "Storage time", "setting": "physiological buffer (0.9% saline or PBS) at 4° C.", "result": "at least 3 months"}, {"measurement": "Storage time", "setting": "room temperature", "result": "at least three"}, {"measurement": "Transmembrane proton gradient (intracellular pH)", "setting": "NRS 384 Staphylococci", "result": "effectively dissipated the proton gradient"}, {"measurement": "Bactericidal activity", "setting": "Escherichia coli [5]", "result": "no detectable activity"}]}]}
